The structures appear in SMILES notation.

Consider 1 molecule from patent publication US20240335644A1, “TREATMENT OF A DISEASE OF THE GASTROINTESTINAL TRACT WITH AN IMMUNE MODULATORY AGENT RELEASED USING AN INGESTIBLE DEVICE” (BIORA THERAPEUTICS, INC., priority 2017, published 2024).

Series [1] in a line: Tissue, plasma, rectal and GI content pharmacokinetics of tacrolimus, oral vs intra-cecal ingestible device (Example 10). Further details: species or system Yorkshire-Cross farm swine. The note with it: in vivo. Here is the method: (§1) No further randomization procedure was employed.
Animals in Group 1 received an ingestible device containing 0.8 mL of vehicle solution (8000 alcohol, 2000 HCO-60). Animals in Group 2 received orally […] liquid formulation of tacrolimus at 4 mg/0.8 mL per animal (Prograf: 5 mg/mL). Animals in Group 3 received intra-cecally an ingestible device containing tacrolimus at 1 mg in 0.8 mL per ingestible device. Animals in Group 4 received intra-cecally an ingestible device containing tacrolimus at 2 mg in 0.8 mL per ingestible device. Animals in Group 5 received intra-cecally an ingestible device containing tacrolimus at 4 mg in 0.8 mL per ingestible device. To control for potential confounding effects of the surgery, all groups fast on Day −11 at least 24 hr before being subjected to anesthesia followed by surgical placements of a cecal port by a veterinary surgeon at Day −10. All animals were fasted for at least 12 hr prior to dosing on Day 1. Animals were dosed via either intra-cecal dosing (IC) or oral dosing (PO) at Day 1 (between 6-8 p.m.). All animals resumed feeding at approximately 4 hours after dose (11-12 p.m. after dosing).
Animals in Group 1 (Vehicle Control) were administered a single intra-cecal ingestible device containing 0.8 mL Vehicle solution (80% alcohol, 20% castor oil (HCO-60) on Day 1. On Day −10 the animals were anesthetized, and a veterinary surgeon surgically placed an intra-cecal port in each animal. On Day 1, each animal was placed into a sling then a single intra-cecal ingestible device containing 0.8 mL vehicle solution (80% alcohol, 20% castor oil (HCO-60)) is introduced by the veterinary surgeon into the cecum via the cecal port in each animal. Following ingestible device placement, the animals were removed from the slings and placed back into their pens with water. All animals resumed feeding at approximately 4 hours after dose. […] A total of 60 samples were collected.
Approximately 200-400 mg of rectal content were collected, if available, with a fecal swab (Copan Diagnostics Nylon Flocked Dry Swabs, 502CS01). The fecal swab was pre-weighed and weighed after collection in the collection tube (Sterile Tube and Cap No Media, PFPM913S), and the sample weight was recorded. […]
For tissue necropsy, small intestine fluid and cecal fluid were collected separately from all the animals into two separate square plastic bottles, and stored at −20° C. The length and diameter of the cecum and the colon was measured from one animal in each group and recorded for reference. […] All samples were weighed, and the tissue sample weights were recorded. […] Around 3 grams of the total punched sample were collected into a pre-weighed 15-mL conical tube, and the tissue weight was recorded. […]

Series [2] is described as follows: Pharmacokinetic study of oral vs intra-cecal tacrolimus: blood, rectal content, GI tissue and luminal content, tissue/plasma ratios (Example 13). Further details: species or system Yorkshire-Cross farm swine. The note with it: female, Yorkshire-Cross, swine, in vivo, 0.09 mg/kg.
From the text: as §1

Consider `C=CC[C@@H]1/C=C(\C)C[C@H](C)C[C@H](OC)[C@H]2O[C@@](O)(C(=O)C(=O)N3CCCC[C@H]3C(=O)O[C@H](/C(C)=C/[C@@H]3CC[C@@H](O)[C@H](OC)C3)[C@H](C)[C@@H](O)CC1=O)[C@H](C)C[C@@H]2OC` [tacrolimus], for which, in series [1], the “luminal content (spiral, transverse, and distal colon) concentrations” value is “Significantly higher”; the “mean concentration of tacrolimus in the cecum tissue and the proximate colon tissue” value is recorded as “higher”; the “tissue (spiral and transverse colon) concentrations” value was “Significantly higher”. Further, the “level of tacrolimus in tissue” value in series [1] (po) was “No measurable level”. Also, in series [2] (12 h), the “Ratio Tissue(mean) (ng/g)/AUG(0-12 hr) (ng · hr/ml)” value was 0, the “Ratio Tissue(mean) (ng/g)/Trough(12 hr)(ng/ml)” value was found to be 0 and the “Trough (12 hr)” value is 0.568 ng/mL. The concentration at 12 h in series [2] (Trough (12 hr)) amounted to 0.568 ± 0.291 ng/mL.
